Data on five molecules can be found in US20250163119A1, “COMPOUNDS FOR THE TREATMENT OF DIABETES OR OBESITY” (Eli Lilly and Company, priority 2023, published 2025).

*1 amine or outer side, *2 acyl side, *3 side chain or, on linkers, in order; H or OH if unused. Where a SMILES comes first, the peptide text is derived from it. Side-chain parts run from the residue outwards. [ ]: non-standard residue; d: D form. The star is where a group is joined. C20 diacid = O=C(O)CCCCCCCCCCCCCCCCCCC(=O)*; γGlu = O=C(O)[C@H](CCC(=O)[*:2])N[*:1]; εLys = N[C@@H](CCCCN[*:1])C(=O)[*:2]; αMeL = CC(C)C[C@](C)(N)C(=O)O; AEEA = NCCOCCOCC(=O)O; Aib = CC(C)(N)C(=O)O

In one assay the target is T1, human CRHR2 (Homo sapiens, UniProt Q13324).
T1 construct: expressed in transfected cells
T1 sequence (Q13324 1-438 isoform Q13324-2): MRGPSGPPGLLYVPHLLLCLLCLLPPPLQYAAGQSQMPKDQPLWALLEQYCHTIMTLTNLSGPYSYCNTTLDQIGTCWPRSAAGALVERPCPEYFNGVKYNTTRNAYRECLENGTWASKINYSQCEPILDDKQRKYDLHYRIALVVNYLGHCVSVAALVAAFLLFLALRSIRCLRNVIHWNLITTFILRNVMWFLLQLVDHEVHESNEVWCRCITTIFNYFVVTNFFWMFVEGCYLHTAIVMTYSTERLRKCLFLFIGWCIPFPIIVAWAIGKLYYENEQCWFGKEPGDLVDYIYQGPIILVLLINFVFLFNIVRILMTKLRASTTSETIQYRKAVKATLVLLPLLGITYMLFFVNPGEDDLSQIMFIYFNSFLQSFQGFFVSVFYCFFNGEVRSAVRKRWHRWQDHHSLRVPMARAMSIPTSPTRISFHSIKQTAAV
As to the kind of experiment: Human CRHR2 cAMP assay (HTRF) in HEK293 cells stably expressing human CRHR2. The class given is cell-based. The settings on record: HEK293 cells overexpressing human CRHR2; relative EC50, maximum 10 nM human UCN2; mean ± SE; read-out: hCRHR2 cAMP EC50 (pM, ± SE). The gist of the method: (§1)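 HTRF cAMP read-out (665/620 nm ratio, 60 min lysis/detection at RT), converted to pmol/well via per-experiment standard curve. Stable HEK293 lines; buffer MEM, 0.1% casein, 5 mM HEPES pH 7.4, 0.25 mM IBMX. CRHR1: 25,000 cells, 1 h, 37° C. CRHR2: 5,000 cells, 30 min, RT.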
A general note: cAMP levels reflect the balance of adenylyl cyclase and phosphodiesterase activity.

The next assay addresses T2, human CRHR1 (Homo sapiens, UniProt P34998).
T2 construct: expressed in transfected cells
T2 sequence (P34998 24-415): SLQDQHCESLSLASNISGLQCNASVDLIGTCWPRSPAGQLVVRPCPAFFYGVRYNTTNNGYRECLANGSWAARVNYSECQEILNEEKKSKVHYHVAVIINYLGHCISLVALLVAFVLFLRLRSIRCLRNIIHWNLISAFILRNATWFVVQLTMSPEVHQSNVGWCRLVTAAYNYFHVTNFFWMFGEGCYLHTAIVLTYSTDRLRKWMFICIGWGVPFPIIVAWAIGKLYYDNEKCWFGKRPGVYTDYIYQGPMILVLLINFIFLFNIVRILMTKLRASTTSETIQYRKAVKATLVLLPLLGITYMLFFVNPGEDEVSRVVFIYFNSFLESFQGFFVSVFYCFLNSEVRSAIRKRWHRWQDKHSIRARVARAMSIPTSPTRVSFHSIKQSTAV
The experiment in a line: Human CRHR1 cAMP assay (HTRF) in HEK293 cells stably expressing human CRHR1. The class given is cell-based. The settings on record: HEK293 cells overexpressing human CRHR1; relative EC50, maximum 66 nM human UCN1; mean ± SE; read-out: hCRHR1 cAMP EC50 (pM, ± SE). The gist of the method:
as §1

What is called EC50 is the midpoint of the concentration-response curve. Regarding `CC[C@H](C)[C@H](NC(C)=O)C(=O)N[C@H](C(=O)N[C@H](C(=O)N[C@@H](CO)C(=O)N[C@@](C)(CC(C)C)C(=O)N[C@@H](CC(=O)O)C(=O)N[C@@H](C(=O)N1CCC[C@H]1C(=O)N[C@H](C(=O)NCC(=O)N[C@@](C)(CC(C)C)C(=O)N[C@@H](CC(C)C)C(=O)N[C@@H](CCC(N)=O)C(=O)N[C@H](C(=O)N[C@@H](CCCCN)C(=O)N[C@@H](CC(C)C)C(=O)N[C@@H](CCC(=O)O)C(=O)N[C@@H](CCC(N)=O)C(=O)N[C@@H](CCC(=O)O)C(=O)N[C@@H](CCCNC(=N)N)C(=O)N[C@@H](C)C(=O)N[C@@H](CCC(=O)O)C(=O)N[C@@H](CCCCN)C(=O)N[C@@H](C)C(=O)N[C@@H](CCCNC(=N)N)C(=O)N[C@@H](CCC(N)=O)C(=O)N[C@@H](CCC(N)=O)C(=O)N[C@@H](C)C(=O)N[C@@H](CCCCNC(=O)CC[C@H](NC(=O)CC[C@H](NC(=O)[C@@H](N)CCCCNC(=O)CCCCCCCCCCCCCCCCCCC(=O)O)C(=O)O)C(=O)O)C(=O)N[C@@H](CCC(=O)O)C(=O)N[C@@H](CC(N)=O)C(=O)N[C@H](C(=O)N[C@@H](CCC(=O)O)C(=O)N[C@H](C(=O)N[C@@H](CC(C)C)C(=O)N[C@@H](C)C(=O)N[C@@H](CCC(N)=O)C(=O)N[C@H](C(N)=O)C(C)C)[C@@H](C)CC)[C@@H](C)O)[C@@H](C)CC)[C@@H](C)O)C(C)C)[C@@H](C)O)C(C)C` [SEQ ID NO: 38, Ac-IVTS αMeL D (D-Val) PTG αMeL LQIKLEQERAEKARQQAK(γE-γE-ϵK-CO-(CH2)18-CO2H)ENTEILAQV-NH2] (Ac-IVTS[αMeL]D[dV]PTG[αMeL]LQIKLEQERAEKARQQAK([γGlu-γGlu-εLys-C20 diacid])ENTEILAQV-NH2), the half-maximal effective concentration (EC50) at human CRHR2 is 6.3 ± 2.1 pM; at human CRHR1, 1.1e+06 pM.
For `CC[C@H](C)[C@H](NC(C)=O)C(=O)N[C@H](C(=O)N[C@H](C(=O)N[C@@H](CO)C(=O)N[C@@](C)(CC(C)C)C(=O)N[C@@H](CC(=O)O)C(=O)N[C@@H](C(=O)N1CCC[C@H]1C(=O)N[C@H](C(=O)NCC(=O)N[C@@](C)(CC(C)C)C(=O)N[C@@H](CC(C)C)C(=O)N[C@@H](CCC(N)=O)C(=O)N[C@H](C(=O)N[C@@H](CCCCN)C(=O)N[C@@H](CC(C)C)C(=O)N[C@@H](CCC(=O)O)C(=O)N[C@@H](CCC(N)=O)C(=O)N[C@@H](CCC(=O)O)C(=O)N[C@@H](CCCNC(=N)N)C(=O)N[C@@H](C)C(=O)N[C@@H](CCC(=O)O)C(=O)N[C@@H](CCCCN)C(=O)N[C@@H](C)C(=O)N[C@@H](CCCNC(=N)N)C(=O)N[C@@H](CCC(N)=O)C(=O)N[C@@H](CCC(N)=O)C(=O)N[C@@H](C)C(=O)N[C@@H](CCCCNC(=O)CC[C@H](NC(=O)[C@@H](N)CCCCNC(=O)CC[C@H](NC(=O)CCCCCCCCCCCCCCCCCCC(=O)O)C(=O)O)C(=O)O)C(=O)N[C@@H](CCC(=O)O)C(=O)N[C@@H](CC(N)=O)C(=O)N[C@H](C(=O)N[C@@H](CCC(=O)O)C(=O)N[C@H](C(=O)N[C@@H](CC(C)C)C(=O)N[C@@H](C)C(=O)N[C@@H](CCC(N)=O)C(=O)N[C@H](C(N)=O)C(C)C)[C@@H](C)CC)[C@@H](C)O)[C@@H](C)CC)[C@@H](C)O)C(C)C)[C@@H](C)O)C(C)C` [SEQ ID NO: 39, Ac-IVTS αMeL D (D-Val) PTG αMeL LQIKLEQERAEKARQQAK(γE-ϵK-γE-CO-(CH2)18-CO2H)ENTEILAQV-NH2] (Ac-IVTS[αMeL]D[dV]PTG[αMeL]LQIKLEQERAEKARQQAK([γGlu-εLys-γGlu-C20 diacid])ENTEILAQV-NH2), in that order: 7.3 ± 0.8 pM and 3.7e+06 pM.
Turning to `CC[C@H](C)[C@H](NC(C)=O)C(=O)N[C@H](C(=O)N[C@H](C(=O)N[C@@H](CO)C(=O)N[C@@](C)(CC(C)C)C(=O)N[C@@H](CC(=O)O)C(=O)N[C@@H](C(=O)N1CCC[C@H]1C(=O)N[C@H](C(=O)NCC(=O)N[C@@](C)(CC(C)C)C(=O)N[C@@H](CC(C)C)C(=O)N[C@@H](CCC(N)=O)C(=O)N[C@H](C(=O)N[C@@H](CCCCN)C(=O)N[C@@H](CC(C)C)C(=O)N[C@@H](CCC(=O)O)C(=O)N[C@@H](CCC(N)=O)C(=O)N[C@@H](CCC(=O)O)C(=O)N[C@@H](CCCNC(=N)N)C(=O)N[C@@H](C)C(=O)N[C@@H](CCC(=O)O)C(=O)N[C@@H](CCCCN)C(=O)N[C@@H](C)C(=O)N[C@@H](CCCNC(=N)N)C(=O)N[C@@H](CCC(N)=O)C(=O)N[C@@H](CCC(N)=O)C(=O)N[C@@H](C)C(=O)N[C@@H](CCCCNC(=O)CNC(=O)[C@H](CCCCN)NC(=O)[C@H](CCC(=O)O)NC(=O)[C@H](CCCCN)NC(=O)[C@H](CCC(=O)O)NC(=O)[C@H](CCCCN)NC(=O)[C@H](CCC(=O)O)NC(=O)CC[C@H](NC(=O)CCCCCCCCCCCCCCCCCCC(=O)O)C(=O)O)C(=O)N[C@@H](CCC(=O)O)C(=O)N[C@@H](CC(N)=O)C(=O)N[C@H](C(=O)N[C@@H](CCC(=O)O)C(=O)N[C@H](C(=O)N[C@@H](CC(C)C)C(=O)N[C@@H](C)C(=O)N[C@@H](CCC(N)=O)C(=O)N[C@H](C(N)=O)C(C)C)[C@@H](C)CC)[C@@H](C)O)[C@@H](C)CC)[C@@H](C)O)C(C)C)[C@@H](C)O)C(C)C` [SEQ ID NO: 43, Ac-IVTS αMeL D (D-Val) PTG αMeL LQIKLEQERAEKARQQAK(GKEKEKE-γE-CO-(CH2)18-CO2H)ENTEILAQV-NH2], the EC50 on human CRHR2 is 7.9 ± 1.3 pM; at human CRHR1, more than 1e+07 pM.
With `CC[C@H](C)[C@H](NC(C)=O)C(=O)N[C@H](C(=O)N[C@H](C(=O)N[C@@H](CO)C(=O)N[C@@](C)(CC(C)C)C(=O)N[C@@H](CC(=O)O)C(=O)N[C@@H](C(=O)N1CCC[C@H]1C(=O)N[C@H](C(=O)NCC(=O)N[C@@](C)(CC(C)C)C(=O)N[C@@H](CC(C)C)C(=O)N[C@@H](CCC(N)=O)C(=O)N[C@H](C(=O)N[C@@H](CCCCN)C(=O)N[C@@H](CC(C)C)C(=O)N[C@@H](CCC(=O)O)C(=O)N[C@@H](CCC(N)=O)C(=O)N[C@@H](CCC(=O)O)C(=O)N[C@@H](CCCNC(=N)N)C(=O)N[C@@H](C)C(=O)N[C@@H](CCC(=O)O)C(=O)N[C@@H](CCCCN)C(=O)N[C@@H](C)C(=O)N[C@@H](CCCNC(=N)N)C(=O)N[C@@H](CCC(N)=O)C(=O)N[C@@H](CCC(N)=O)C(=O)N[C@@H](C)C(=O)N[C@@H](CCCCNC(=O)COCCOCCNC(=O)CC[C@H](NC(=O)CC[C@H](NC(=O)CCCCCCCCCCCCCCCCCCC(=O)O)C(=O)O)C(=O)O)C(=O)N[C@@H](CCC(=O)O)C(=O)N[C@@H](CC(N)=O)C(=O)N[C@H](C(=O)N[C@@H](CCC(=O)O)C(=O)N[C@H](C(=O)N[C@@H](CC(C)C)C(=O)N[C@@H](C)C(=O)N[C@@H](CCC(N)=O)C(=O)N[C@H](C(N)=O)C(C)C)[C@@H](C)CC)[C@@H](C)O)[C@@H](C)CC)[C@@H](C)O)C(C)C)[C@@H](C)O)C(C)C` [SEQ ID NO: 44, Ac-IVTS αMeL D (D-Val) PTG αMeL LQIKLEQERAEKARQQAK((2-[2-(2-Amino-ethoxy)-ethoxy]-acetyl)-(γE)2-CO-(CH2)18-CO2H)ENTEILAQV-NH2] (Ac-IVTS[αMeL]D[dV]PTG[αMeL]LQIKLEQERAEKARQQAK([AEEA-γGlu-γGlu-C20 diacid])ENTEILAQV-NH2), the results for the EC50 at human CRHR2 and at human CRHR1 were 5.4 ± 0.5 pM and more than 1e+07 pM, respectively.
Taken in the same sequence, the figures for “Ac-GSPSIVTS[αMeL]DVPT[Aib][αMeL]LQKILEQERAEKARQQAK([AEEA-Pro-Lys-Glu-γGlu-C20 diacid])EAAEILAQV-NH2 [SEQ ID NO: 3, Ac-GSPSIVTS αMeL DVPT Aib αMeL LQKILEQERAEKARQQAK((2-[2-(2-Amino-ethoxy)-ethoxy]-acetyl)-PKE-γE-CO-(CH2)18-CO2H)EAAEILAQV-NH2]” were 18.3 ± 2.1 pM and more than 1e+07 pM.
